Assay [1] in a line: ELISA assay of peptide motif binding to bleached hair. More on the design: species or system human; Binding Activity % Relative to Control: concentration or dose not given beside the values. Particulars: for Binding Activity % Relative to Control: bleached human hair, biotinylated peptide, streptavidin-HRP/TMB, A450, relative to positive control SEQ ID NO:124; for binding activity to hair compared to the positive control peptide (in words): bleached hair ELISA, summary of Table 7. As for the experimental part:
The hair samples used were 6-inch (15.2 cm) medium brown human hairs obtained from International Hair Importers and Products (Bellerose, N.Y.). The hairs were placed in 90% isopropanol for 30 min at room temperature and then washed 5 times for 10 min each with deionized water. The hairs were air-dried overnight at room temperature. To prepare the bleached hair samples, the air-dried medium brown human hairs were placed in 6% H2O2, which was adjusted to pH 10.2 with ammonium hydroxide, for 10 min at room temperature and then washed 5 times for 10 min each with deionized water. The hairs were air-dried overnight at room temperature.
Ten hair-binding peptide motifs from Table 6 were selected for testing of their hair-binding activity. The ten peptides were synthesized by SynPep (Dublin, Calif.). […] The control peptide had the sequence TPPELLHGDPRS, given as SEQ ID NO:124. The peptides were biotinylated by adding a biotinylated lysine residue at the C-terminus of the amino acid binding sequences for detection purposes and an amidated cysteine was added to the C-terminus of the sequence.
Bleached hair samples were prepared and placed into wells of a custom 24-well biopanning apparatus, as described in Example 1. The hair was blocked with blocking buffer (SuperBlock™ from Pierce Biotechnology, Inc., Rockford, Ill.) at room temperature for 1 h, followed by six washes with TBST-0.5%, 2 min each, at room temperature. Various concentrations of biotinylated, binding peptide were added to each well, incubated for 15 min at 37° C., and washed six times with TBST-0.5%, 2 min each, at room temperature. Then, streptavidin-horseradish peroxidase (HRP) conjugate (Pierce Biotechnology, Inc.) was added to each well (1.0 μg per well), and incubated for 1 h at room temperature. After the incubation, the conjugate solution was removed and the wells were washed six times with TBST-0.5%, 2 min each, at room temperature. TMB substrate (200 μL) (Pierce Biotechnology, Inc.) was added to each well and the color was allowed to develop for between 5 to 30 min, typically for 10 min, at room temperature. Then, stop solution (200 μL of 2 M H2SO4) was added to each well and the solutions were transferred to a 96-well plate and the A450 was measured using a microplate spectrophotometer (Molecular Devices, Sunnyvale, Calif.). The resulting absorbance values, were used to calculate the binding activity of each hair-binding peptide motif relative to the positive control sequence.

The conditions of assay [2]: control peptide as identified by Huang et al.; cited from earlier work.

For the substance “97 (FPPVP; Hair-binding peptide motif) [compound 97]”, in assay [1], the “Binding Activity % Relative to Control” value is 81.5%.

For “98 (RPPLD; Hair-binding peptide motif) [compound 98]”, in assay [1], the “binding activity to hair compared to the positive control peptide (in words)” value is recorded as “comparable to or greater than that of the positive control peptide” and the “Binding Activity % Relative to Control” value is on record as 90.3%. “120 (THPLSNTT; Hair-binding peptide motif) [compound 120]”: in assay [1], the “Binding Activity % Relative to Control” value turned out to be 88.3%. Regarding “123 (RLLRLLRLLRLL; Hair-binding peptide motif) [compound 123]”, in assay [1], the “binding activity to hair compared to the positive control peptide (in words)” value was “comparable to or greater than that of the positive control peptide” and the “Binding Activity % Relative to Control” value worked out at 127.1%. Take “99 (QPLSV; Hair-binding peptide motif) [compound 99]”: the “Binding Activity % Relative to Control” value in assay [1] amounted to 84.6%.

Regarding “119 (SNTTPSPSP; Hair-binding peptide motif) [compound 119]”, in assay [1], the “binding activity to hair compared to the positive control peptide (in words)” value is on record as “comparable to or greater than that of the positive control peptide” and the “Binding Activity % Relative to Control” value was determined as 94.5%. As for “124 (TPPELLHGDPRS; Control hair-binding peptide) [compound 124]”, in assay [1], the “Binding Activity % Relative to Control” value turned out to be 100.0%. For the same substance, the “affinity for hair (in words)” value in assay [2] is recorded as “high affinity for hair”. In the case of “92 (TLGQA; Hair-binding peptide motif) [compound 92]”, the “Binding Activity % Relative to Control” value in assay [1] worked out at 86.6%. For “121 (SPIKRPPLS; Hair-binding peptide motif) [compound 121]”, in assay [1], the “binding activity to hair compared to the positive control peptide (in words)” value is “low binding activity” and the “Binding Activity % Relative to Control” value came out at 4.4%.

Consider “95 (YSPIK; Hair-binding peptide motif) [compound 95]”, for which, in assay [1], the “binding activity to hair compared to the positive control peptide (in words)” value is “low binding activity” and the “Binding Activity % Relative to Control” value is listed as 1.9%.

Regarding “90 (PLSTY; Hair-binding peptide motif) [compound 90]”, the “Binding Activity % Relative to Control” value in assay [1] was determined as 53.0%.
